Values quoted from earlier work in article PMC2981028 (Cancer research, 2010).

Columns and labels:
[1] = target: type 1 insulin-like growth factor receptor (IGF-1R) (Homo sapiens, UniProt P08069); assay: inhibition of IGF-1R phosphorylation in vitro; format: cell-based
insulin receptor (IR) = insulin receptor (IR) (Homo sapiens, UniProt P06213); assay: inhibition of IR phosphorylation in vitro; format: cell-based
insulin receptor (IR), sequence (P06213 28-758): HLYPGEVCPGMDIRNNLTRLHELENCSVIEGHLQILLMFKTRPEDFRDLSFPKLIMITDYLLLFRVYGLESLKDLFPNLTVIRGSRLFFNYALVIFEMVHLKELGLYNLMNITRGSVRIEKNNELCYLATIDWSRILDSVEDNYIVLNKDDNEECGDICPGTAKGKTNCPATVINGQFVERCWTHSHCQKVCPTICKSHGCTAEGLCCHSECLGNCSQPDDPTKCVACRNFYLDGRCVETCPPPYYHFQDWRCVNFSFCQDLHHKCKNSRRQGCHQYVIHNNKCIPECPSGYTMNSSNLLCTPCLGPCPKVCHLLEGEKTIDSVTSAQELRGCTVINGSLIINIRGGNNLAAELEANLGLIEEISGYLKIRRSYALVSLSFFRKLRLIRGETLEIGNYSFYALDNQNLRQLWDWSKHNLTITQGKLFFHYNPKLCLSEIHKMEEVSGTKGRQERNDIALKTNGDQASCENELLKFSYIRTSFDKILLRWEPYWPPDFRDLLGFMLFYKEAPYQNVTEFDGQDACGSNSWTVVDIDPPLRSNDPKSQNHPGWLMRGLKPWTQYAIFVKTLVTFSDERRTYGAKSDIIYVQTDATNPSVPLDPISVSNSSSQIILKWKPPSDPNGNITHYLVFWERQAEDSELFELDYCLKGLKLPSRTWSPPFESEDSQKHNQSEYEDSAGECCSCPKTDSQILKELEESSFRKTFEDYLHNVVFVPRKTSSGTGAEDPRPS
insulin receptor (IR), sequence (P06213 763-1382): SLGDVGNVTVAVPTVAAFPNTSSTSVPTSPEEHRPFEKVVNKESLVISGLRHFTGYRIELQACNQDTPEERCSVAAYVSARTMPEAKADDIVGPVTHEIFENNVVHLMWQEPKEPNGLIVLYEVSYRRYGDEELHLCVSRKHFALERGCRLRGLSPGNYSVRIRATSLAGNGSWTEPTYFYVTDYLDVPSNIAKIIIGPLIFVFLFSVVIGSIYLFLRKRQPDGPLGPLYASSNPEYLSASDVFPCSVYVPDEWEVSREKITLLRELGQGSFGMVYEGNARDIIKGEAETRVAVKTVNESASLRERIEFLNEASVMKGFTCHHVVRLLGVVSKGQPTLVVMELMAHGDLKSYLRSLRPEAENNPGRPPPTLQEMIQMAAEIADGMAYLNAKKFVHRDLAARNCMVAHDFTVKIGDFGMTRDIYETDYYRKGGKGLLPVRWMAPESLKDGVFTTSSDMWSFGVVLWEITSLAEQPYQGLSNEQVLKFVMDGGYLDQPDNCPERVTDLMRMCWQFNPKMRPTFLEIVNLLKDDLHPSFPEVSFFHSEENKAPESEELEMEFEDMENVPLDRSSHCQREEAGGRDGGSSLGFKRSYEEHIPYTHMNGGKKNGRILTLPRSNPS

type 1 insulin-like growth factor receptor (IGF-1R), sequence (P08069 31-736): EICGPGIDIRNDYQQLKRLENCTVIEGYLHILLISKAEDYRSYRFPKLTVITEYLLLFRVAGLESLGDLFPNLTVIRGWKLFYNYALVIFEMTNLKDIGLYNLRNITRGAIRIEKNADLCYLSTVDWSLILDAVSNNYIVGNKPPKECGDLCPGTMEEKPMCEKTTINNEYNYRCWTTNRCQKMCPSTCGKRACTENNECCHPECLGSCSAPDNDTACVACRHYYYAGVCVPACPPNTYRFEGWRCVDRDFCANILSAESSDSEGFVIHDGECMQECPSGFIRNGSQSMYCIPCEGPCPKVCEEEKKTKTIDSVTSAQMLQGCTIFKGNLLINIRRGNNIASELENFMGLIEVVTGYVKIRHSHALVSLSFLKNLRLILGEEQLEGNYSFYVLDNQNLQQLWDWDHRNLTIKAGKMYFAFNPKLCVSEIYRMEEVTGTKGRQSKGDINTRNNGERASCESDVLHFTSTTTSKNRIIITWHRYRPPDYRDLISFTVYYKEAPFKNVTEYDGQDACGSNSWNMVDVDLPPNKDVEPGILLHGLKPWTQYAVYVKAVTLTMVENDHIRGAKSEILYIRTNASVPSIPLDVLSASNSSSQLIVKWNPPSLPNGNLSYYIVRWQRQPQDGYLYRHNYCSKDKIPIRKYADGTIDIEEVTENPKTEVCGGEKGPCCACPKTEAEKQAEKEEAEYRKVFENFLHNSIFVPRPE
type 1 insulin-like growth factor receptor (IGF-1R), sequence (P08069 741-1367): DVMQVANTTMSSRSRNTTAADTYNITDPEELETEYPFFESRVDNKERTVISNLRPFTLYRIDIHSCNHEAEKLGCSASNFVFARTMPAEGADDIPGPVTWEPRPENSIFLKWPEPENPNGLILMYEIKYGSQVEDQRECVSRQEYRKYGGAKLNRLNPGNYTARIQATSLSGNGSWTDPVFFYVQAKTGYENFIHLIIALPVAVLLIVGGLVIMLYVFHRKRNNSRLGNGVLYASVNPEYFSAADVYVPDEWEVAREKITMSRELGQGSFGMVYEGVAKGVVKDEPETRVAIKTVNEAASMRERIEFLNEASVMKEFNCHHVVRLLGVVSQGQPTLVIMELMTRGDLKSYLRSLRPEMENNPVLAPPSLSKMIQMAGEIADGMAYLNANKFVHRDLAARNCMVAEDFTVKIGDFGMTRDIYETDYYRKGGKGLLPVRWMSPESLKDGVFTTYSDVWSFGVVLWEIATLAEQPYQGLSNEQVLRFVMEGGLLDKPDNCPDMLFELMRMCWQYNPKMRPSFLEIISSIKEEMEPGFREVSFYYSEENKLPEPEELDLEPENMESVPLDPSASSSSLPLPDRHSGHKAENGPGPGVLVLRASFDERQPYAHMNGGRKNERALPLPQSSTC

IC50 [1]: 2.1 nM
IC50 (insulin receptor (IR)): 19 nM
SMILES: Cc1cc(Nc2cc(C)[nH]n2)nc(N2CCC[C@H]2c2cc(-c3ccccn3)no2)n1 [AZ12253801]
